Source: the NIST ThermoML archive (doi:10.1021/acs.jced.9b00327)
Numbers after ± are expanded uncertainties.

Tests used:
[1] = mn = molality of the nth substance listed, in mol/kg; conditions: 100 kPa, Liquid; for speed of sound: Single path-length method; for mass density: Vibrating tube method
[2] = 100 kPa, Liquid, Single path-length method

Cn1c(=O)c2c(ncn2C)n(C)c1=O [caffeine] + O
[1]
Conditions | mass density, m1 = 0.005 [kg/m3] | mass density, m1 = 0.01 [kg/m3] | mass density, m1 = 0.02 [kg/m3] | mass density, m1 = 0.04 [kg/m3] | mass density, m1 = 0.06 [kg/m3] | speed of sound, m1 = 0.005 [m/s] | speed of sound, m1 = 0.01 [m/s] | speed of sound, m1 = 0.02 [m/s] | speed of sound, m1 = 0.04 [m/s] | speed of sound, m1 = 0.06 [m/s]
293.15 K | 998.731 ± 1 | 998.986 ± 1 | 999.492 ± 1 | 1000.68 ± 1 | 1001.78 ± 1 | 1483 ± 4 | 1483.5 ± 4 | 1484 ± 4 | 1485.1 ± 4 | 1486.2 ± 4
298.15 K | 997.275 ± 1 | 997.549 ± 1 | 998.082 ± 1 | 999.091 ± 1 | 1000.02 ± 1 | 1497.2 ± 4 | 1497.6 ± 4 | 1498 ± 4 | 1499 ± 4 | 1500.1 ± 4
303.15 K | 996.169 ± 1 | 996.422 ± 1 | 996.912 ± 1 | 997.986 ± 1 | 999.147 ± 1 | 1509.5 ± 4 | 1509.8 ± 4 | 1510.3 ± 4 | 1511.2 ± 4 | 1512.1 ± 4
308.15 K | 994.279 ± 1 | 994.556 ± 1 | 995.092 ± 1 | 996.095 ± 1 | 997.015 ± 1 | 1520.1 ± 4 | 1520.4 ± 4 | 1520.8 ± 4 | 1521.6 ± 4 | 1522.4 ± 4
313.15 K | 992.732 ± 1 | 992.974 ± 1 | 993.452 ± 1 | 994.51 ± 1 | 995.632 ± 1 | 1529.1 ± 4 | 1529.4 ± 4 | 1529.8 ± 4 | 1530.4 ± 4 | 1531.2 ± 4
318.15 K | 990.833 ± 1 | 990.981 ± 1 | 991.327 ± 1 | 992.156 ± 1 | 992.958 ± 1 | 1536.7 ± 4 | 1537 ± 4 | 1537.2 ± 4 | 1537.8 ± 4 | 1538.5 ± 4

O [water]
[2]
Conditions | speed of sound [m/s]
313.15 K | 1528.9 ± 4
318.15 K | 1536.5 ± 4
